{
  "source": "patent US10315990B2",
  "about": "“Isothiocyanate compounds and isothiocyanate XPO1 protein inhibitor drugs thereof” (DRIVINGFORCE THERAPEUTICS Co., Ltd., priority 2015, dated 2019)",
  "key": {"[1]": {"tested_on": "TNF-α", "test": "Serum TNF-α level of IBD animal model (ELISA)", "assay_type": "in vivo, SD rats", "conditions": "80 mg/kg, three days after making the TNBS model", "excerpt": "Inflammatory bowel disease is an autoimmune disease. […] The therapeutic effect of the representative compound for the immune system disease or inflammation can be assessed by detecting change in levels of some important cytokines such as TNF-α and IL-6 at downstream of the signal path."}, "[2]": {"tested_on": "NCI-H1650", "test": "cells", "assay_type": "cell-based", "conditions": "Homo sapiens; NCI-H1650, 72 hours; read-out: IC50"}, "[3]": {"tested_on": "NCI-H1975", "test": "cells", "assay_type": "cell-based", "conditions": "Homo sapiens; NCI-H1975, 72 hours; read-out: IC50"}, "[4]": {"tested_on": "SK-OV3 (high metastasis type ovarian cancer cell line)", "test": "Ovarian cancer intraperitoneal metastasis animal model", "assay_type": "in vivo, nudemice (BALB/c-nu/nu)", "conditions": "Mus musculus, SK-OV-3, ip"}},
  "data": [
    {"compound": "C[S+]([O-])CCCCN=C=S", "note": "(stereo not shown) [SFN, sulforaphane, reference compound]", "values": [
      {"measurement": "Serum TNF-α level, Animal-1", "setting": "[1]; Animal-1", "value": 2.1, "unit": "ng/mL"},
      {"measurement": "Serum TNF-α level, Animal-2", "setting": "[1]; Animal-2", "value": 1.8, "unit": "ng/mL"},
      {"measurement": "Serum TNF-α level, Animal-3", "setting": "[1]; Animal-3", "value": 2.1, "unit": "ng/mL"},
      {"measurement": "IC50", "setting": "[2]", "value": 18.1, "unit": "µM"},
      {"measurement": "IC50", "setting": "[3]", "value": 20.3, "unit": "µM"},
      {"measurement": "response vs control in vivo at 80 mg/kg", "setting": "[4]; 504 h, 80 mg/kg intraperitoneal injection once a day for 3 weeks, read-out: T/C (%)", "value": 95, "unit": "%"},
      {"measurement": "mortality at 80 mg/kg", "setting": "[4]; 720 h, read-out: Mortality (within 30 days)", "value": 16.7, "unit": "%"}
    ]}
  ]
}
